Assay results: article PMC8143647, “Proteomics of Galápagos Marine Iguanas Links Function of Femoral Gland Proteins to the Immune System” (Molecular & Cellular Proteomics : MCP, 2020)

Key:
Bacillus subtilis = test: Antimicrobial activity, relative growth inhibition in broth microdilution (Gram-pos.); assay type: cell-based; design: key to Activity against Gram-pos.: ++: highly active (comparable to oncocin); +: moderately active; +/-: moderately active without clear dose dependency; -: no activity; details: for Activity against Gram-pos.: Bacillus subtilis in Miller-Hinton broth, inoculum 1-2 x 10^7 cfu/ml, 100 µl + 20 µl test substance, 2n dilution series from 1 mg/ml down to 31 µg/ml, 18-24 h 37 °C, photometer 600 nm, duplicates
Procedure: (§1) Test strains of Bacillus subtilis, Escherichia coli K12 or Escherichia coli BL21 were grown in Miller-Hinton broth (MHB) for 18–20 h at 37 °C with moderate shaking. An inoculum of 1–2 × 10^7 cfu/ml was prepared in fresh MHB and 100 µl of the suspension was pipetted into microtiter plate wells together with 20 µl test substance. Test substances were measured in duplicates. The plates were covered by a plastic seal to prevent evaporation and incubated for further 18–24 h at 37 °C with moderate shaking. The test substances were dissolved in water at a concentration of 1 mg/ml and a 2n dilution series down to 31 µg/ml was prepared in sterile PBS. After incubation, the bacterial growth was estimated with a Photometer at 600 nm and the relative growth inhibition was calculated compared with a control without test substance. As positive control the well-studied AMP oncocin was used.
(§2) We were intrigued by these antimicrobial signatures and sought to systematically analyze the proteome of femoral glands. To this end, we utilized the marine iguana protein database of all detected proteins, and generated a library of potential antimicrobial peptides (AMP) by in-silico sliding window digestion. Here, we generated sequence windows of 8 to 15 amino acids and resulting peptides were predicted for antimicrobial activity by a trained support vector machine (as described in the methods) (Fig. 5). […] To experimentally test the antimicrobial properties of these peptides, we determined growth rate reductions of bacterial cultures in the presence of increasing candidate peptide concentration. As positive control, we used the well-established AMP oncocin ([40]). As negative control, we have picked four peptides predicted to have no AMP activity.

[1] = test system: Escherichia coli K12 or Escherichia coli BL21; test: Antimicrobial activity, relative growth inhibition in broth microdilution (Gram-neg.); assay type: cell-based; design: key to Activity against Gram-neg.: ++: highly active (comparable to oncocin); +: moderately active; +/-: moderately active without clear dose dependency; -: no activity; antimicrobial activity compared with oncocin: dose or concentration left out as unconfirmed; details: for Activity against Gram-neg.: Escherichia coli in Miller-Hinton broth, inoculum 1-2 x 10^7 cfu/ml, 100 µl + 20 µl test substance, 2n dilution series from 1 mg/ml down to 31 µg/ml, 18-24 h 37 °C, photometer 600 nm, duplicates
Procedure: as §1, §2

Substance	Activity against Gram-pos. (Bacillus subtilis)	Activity against Gram-neg. [1]	dose dependent maximal growth reduction (Bacillus subtilis; B. subtilis cultures, high concentrations required, vs control without test substance, OD 600 nm)	antimicrobial activity compared with oncocin ([1]; E. coli cultures, low concentrations between 3 and 60)	dose dependent maximal growth reduction ([1]; E. coli cultures, vs control without test substance, OD 600 nm)
RLTPFVEPRY [Iguana-12, predicted antimicrobial peptide from marine iguana proteome, …]	+/-	+			
GSFPKEAIVQK [Iguana-07, predicted antimicrobial peptide from marine iguana proteome, …]		+/-			
KKPLITMDEIP [Iguana-11, predicted antimicrobial peptide from marine iguana proteome, …]	++	+			
IADPDQFVLKPQ [Iguana-15, predicted antimicrobial peptide from marine iguana proteome, …]	+/-	+			
GGRRGSI [Iguana-02, predicted antimicrobial peptide from marine iguana proteome, GGRRGSI]	+/-	+/-			
LPTKLDSAFIRKDPFG [Iguana-14, predicted antimicrobial peptide from marine iguana proteome, …]	+/-	+			
LSRPGVLERFLPDKP [Iguana-16, predicted antimicrobial peptide from marine iguana proteome, …]	+	+			
RGSIGGGRRGSI [Iguana-03, predicted antimicrobial peptide from marine iguana proteome, …]	+/-	-			
IFELDGALYR [Iguana-non-04]	-	-			
YKFYKA [Iguana-01, predicted antimicrobial peptide from marine iguana proteome, YKFYKA]	+	+			
VDKPPYLPRPRPPRRIYNR-NH2 [Oncocin, well-studied AMP used as positive control, …-NH2, reference compound]	++	++			
SYFVKRPPGV [Iguana-13, predicted antimicrobial peptide from marine iguana proteome, …]	+/-	+/-			
LSLSRISIP [Iguana-06, predicted antimicrobial peptide from marine iguana proteome, …]		+/-			
NLVSVDERLV [Iguana-non-03]	-	-			
RGQYG [Iguana-09, predicted antimicrobial peptide from marine iguana proteome, RGQYG]		+			
MPKFHMPKF [Iguana-17, predicted antimicrobial peptide from marine iguana proteome, …]	++	++			
SALWVVER [Iguana-non-01]	-	-			
IIPNEDFS [Iguana-05, predicted antimicrobial peptide from marine iguana proteome, IIPNEDFS]		-			
LKVPELNV [Iguana-non-02]	-	-			
VDPQKV [Iguana-08, predicted antimicrobial peptide from marine iguana proteome, VDPQKV]		+			
KKLYISKGCMSKSLC [Iguana-04, predicted antimicrobial peptide from marine iguana proteome, …]	++	++	~95%	exceeded even the oncocin activity	approx. 75%
AGVPRFRFGPPE [Iguana-10, predicted antimicrobial peptide from marine iguana proteome, …]	+/-	++			
